From patent US11591298B2, “Bisaminoquinoline compounds, pharmaceutical compositions prepared therefrom and their use” (THE TRUSTEES OF THE UNIVERSITY OF PENNSYLVANIA, priority 2011, dated 2023)

What was measured:
[1] = test system: c8161 cells; assay: Immunoblotting against LC3 and p62 in c8161 cells; format: cell-based; details: Lys01 versus Lys05
Protocol: (§1) FIGS. 5A, 5B. […] (5A) Immunoblotting against LC3 and p62 in c8161 cells treated as indicated (5B) MTT assay in c8161 cells at 72 hours. HCQ: Hydroxychloroquine.
(§2) Lys05, the trihydrochloride salt of Lys01 was synthesized to enhance aqueous solubility and to enable in vivo studies. […] To investigate the safety of Lys05 and its in vivo effects on autophagy, c8161 xenografts matched for tumor size were treated with intraperitoneal (i.p.) daily PBS, or equimolar doses of HCQ or Lys05 (HCQ 60 mg/kg (138 nmoles/g), Lys05 76 mg/kg (138 nmoles/g)) for 48 hours. […] After 48 hours of treatment mice were euthanized, and tumors were processed for electron microscopy (EM).

[2] = test system: LC3II/LC3I ratio in LN229 cells; assay: LC3 immunoblotting (LC3II/LC3I ratio) in LN229 cells; format: cell-based, human; details: concentration of 10 μM, 4 hours
Protocol: FIG. 3. Effects of Lys01-Lys04 on LC3 immunoblotting Immunoblotting and quantification of LC3II/LC3I ratio in lysates from LN229 cells treated for 4 hours. The graphs show (mean+/−SD) LC3II/LC3I ratios of each treatment normalized to the LC3II/LC3I ratio of control treated cells for each experiment.
LN229 (human glioblastoma) were treated with Lys01 and derivatives Lys02, Lys03, Lys04, HCQ and CQ. […] LC3 is a ubiquitin-like protein which exists as an unconjugated form (LC3I) or conjugated to AV membranes (LC3II) (25). The ratio of LC3II/LC3I reflects the accumulation of AV in cells, and therefore effective autophagy inhibition.

[3] = test system: c8161 cells; assay: MTT assay in c8161 cells at 72 hours; format: cell-based; details: Lys01 versus Lys05
Protocol: as §1, §2

[4] = test system: LN229 (human glioblastoma); assay: Cell death of cultured LN229 cells; format: cell-based; details: concentrations of 10 μM or higher, between 4-24 hours
[5] = test system: LN229 GFP-LC3 cells; assay: GFP-LC3 puncta imaging in LN229 GFP-LC3 cells; format: cell-based, human; details: for GFP-LC3 punctate fluorescence: within 4 hours
Protocol: Autophagy inhibition and cytotoxicity of Lys01 compared to HCQ (4A) Representative images of LN229 GFP-LC3 cells treated as indicated for 4 hours. White arrows: small puncta; red arrows: dense puncta. Graphs show mean+/−SEM puncta/cell. (4B) Representative electron micrographs of LN229-GFP-LC3 cells treated (4 hours) with DMSO, HCQ 10 μM, or Lys01 10 μM Arrows: Autophagic vesicles. (4C) LC3 immunoblotting of LN229 cells treated for 24 hours an indicated; calculated ratio of LC3II/LC3I ratios for bafilomycin versus control co-treatment. […] Values presented are means+/−SEM with 5 replicates per treatment.
To determine if Lys01 treatment was inducing production of new autophagic vesicles (an autophagy inducer) or blocking the clearance of autophagy vesicles (an autophagy inhibitor), a bafilomycin clamp experiment was performed (FIG. 4C). LN229 GFP-LC3 cells were treated with DMSO, rapamycin, HCQ 10 μM, and Lys01 10 μM, in the absence or presence of bafilomycin.

[6] = test system: HCC827; assay: Cell death after 24 hours in HCC827 cells; format: cell-based; details: 10 μM
[7] = test system: 1205Lu; assay: Cell death after 24 hours in 1205Lu cells; format: cell-based; details: 10 μM
[8] = test system: LN229 (glioma), 1205Lu (melanoma), HT-29 (colon) and c8161 (melanoma) cells; assay: MTT assay (72 hours) in 4 cell lines; format: cell-based; details: range over the 4 cell lines tested
Protocol: FIGS. 4A, 4B, 4C, 4D. […] White arrows: small puncta; red arrows: dense puncta. Graphs show mean+/−SEM puncta/cell. (4B) Representative electron micrographs of LN229-GFP-LC3 cells treated (4 hours) with DMSO, HCQ 10 μM, or Lys01 10 μM Arrows: Autophagic vesicles. (4C) LC3 immunoblotting of LN229 cells treated for 24 hours an indicated; calculated ratio of LC3II/LC3I ratios for bafilomycin versus control co-treatment. […] (4D) MTT assay (72 hours) for 4 cell lines. Red: Lys01, Blue: Lys02, Purple: Lys03 Green: Lys04 Orange: HCQ. Values presented are means+/−SEM with 5 replicates per treatment.
The MTT assay was used to assess viable cells at 72 hours.

[9] = test system: P. falciparum; assay: P. falciparum strains grown in vitro in human RBC (Table 2, FIG. 17); format: cell-based; details: some CQ-resistant cell lines; values only in FIG. 17
Description: FIG. 17, Table 2 provides IC50 (M) values of a number of compounds according to the present invention in P. falciparum.
There is a similar activity profile for anticancer activity of Lys01 derivatives and malaria cytotoxicity.

Question: Which LC3II/LC3I ratio [1] does the source give for CN(CCNc1ccnc2cc(Cl)ccc12)CCNc1ccnc2cc(Cl)ccc12 [Lys01] here?
Answer: Its LC3II/LC3I ratio is “equivalent dose-dependent increases”.

Question: And the “autophagy cargo protein p62” value [1]?
Answer: The value was “accumulation”.

Question: What about the “potency as autophagy inhibitor relative to HCQ or CQ (LC3 immunoblotting)” value [2] of the same compound?
Answer: Its value is greater than 10 fold.

Question: And the “IC50 values in the MTT assay” value [3]?
Answer: The value was “identical”.

Question: And the “cell death of cultured cells” value [4]?
Answer: The value was “Near complete cell death”.

Question: What about the GFP-LC3 punctate fluorescence ([5]; 1 μM) of the same compound?
Answer: The GFP-LC3 punctate fluorescence was “numerous small puncta”.

Question: What about the “increase in GFP-LC3 puncta per cell, 10 μM Lys01 compared to 10 μM HCQ” value ([5]; 10 μM, 4 hours) of the same compound?
Answer: Its value is 5 fold.

Question: And the GFP-LC3 punctate fluorescence ([5]; 10 μM)?
Answer: Its GFP-LC3 punctate fluorescence is “dense puncta”.

Question: And the cell death ([5]; 100 μM)?
Answer: Its cell death is “dead by 4 hours”.

Question: And the “average number of vesicles per cell” value ([5]; Lys01 10 μM versus 100 μM HCQ)?
Answer: The value was “higher than in cells treated with 100 μM HCQ”.

Question: What about the cell death [6] of the same compound?
Answer: Its cell death is “Near complete cell death”.

Question: And the cell death [7]?
Answer: Its cell death is “Near complete cell death”.

Question: What about the IC50 [8] of the same compound?
Answer: The IC50 was 4 to 8 µM.

Question: What about the “IC50, activity compared to artesunate” value [9] of the same compound?
Answer: The value was “more active than artesunate”.
